Measurements: BindingDB's records for doi:10.1080/14756360701408754 (Pharmaceutical Research Centre, 2008)

Target: T1, Seed linoleate 13S-lipoxygenase-1 (Glycine max, UniProt P08170)
T1 sequence (P08170 whole entry): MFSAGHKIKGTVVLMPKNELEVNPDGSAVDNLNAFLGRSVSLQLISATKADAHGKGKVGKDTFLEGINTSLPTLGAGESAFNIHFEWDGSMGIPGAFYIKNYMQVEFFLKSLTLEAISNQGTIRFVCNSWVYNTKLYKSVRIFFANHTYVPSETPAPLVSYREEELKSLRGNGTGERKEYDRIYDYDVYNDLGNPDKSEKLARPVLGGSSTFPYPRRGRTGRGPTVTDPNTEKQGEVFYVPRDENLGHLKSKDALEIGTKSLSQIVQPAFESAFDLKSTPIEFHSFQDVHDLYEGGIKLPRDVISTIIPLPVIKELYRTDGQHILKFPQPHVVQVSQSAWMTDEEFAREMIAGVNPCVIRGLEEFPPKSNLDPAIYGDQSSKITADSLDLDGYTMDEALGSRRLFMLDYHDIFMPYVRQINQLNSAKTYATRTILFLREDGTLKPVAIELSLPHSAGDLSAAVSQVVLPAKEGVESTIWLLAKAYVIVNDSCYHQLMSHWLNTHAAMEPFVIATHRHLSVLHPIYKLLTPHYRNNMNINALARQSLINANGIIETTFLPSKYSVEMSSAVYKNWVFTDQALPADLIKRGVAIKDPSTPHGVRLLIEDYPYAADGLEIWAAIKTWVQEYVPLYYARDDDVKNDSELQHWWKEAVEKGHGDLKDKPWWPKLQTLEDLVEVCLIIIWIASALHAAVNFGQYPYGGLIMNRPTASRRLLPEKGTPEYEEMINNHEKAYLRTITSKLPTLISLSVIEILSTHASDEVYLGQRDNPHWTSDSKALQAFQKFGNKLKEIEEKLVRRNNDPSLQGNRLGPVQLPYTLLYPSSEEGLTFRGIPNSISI
Assay: Inhibition Assay
Settings: pH 8; 25 °C
Experimental: In vitro liposygenase inhibition assay activity was measured by modifying the spectrophotometric method developed by Tappel. The compound was prepared in methanol at various concentrations ([…]). The inhibition by lipoxygenase activity by 50% (IC50) was determined by monitoring the effect of increasing concentrations of these compounds in the assays on the degree of inhibition.

| SMILES | IC50 |
| --- | --- |
| CC1(C)CC(=O)C(C(c2ccccc2O)C2C(=O)CC(C)(C)CC2=O)C(=O)C1 [Tetraketone, 4] | 198 µM |
| CC1(C)CC(=O)C(C(c2cccc(Br)c2)C2C(=O)CC(C)(C)CC2=O)C(=O)C1 [Tetraketone, 14] | 52.9 µM |
| Cc1ccc(C(C2C(=O)CC(C)(C)CC2=O)C2C(=O)CC(C)(C)CC2=O)cc1 [Tetraketone, 3] | 16.3 µM |
| CC1(C)CC(=O)C(C(c2ccccc2[N+](=O)[O-])C2C(=O)CC(C)(C)CC2=O)C(=O)C1 [Tetraketone, 16] | 191 µM |
| CCOc1ccc(C(C2C(=O)CC(C)(C)CC2=O)C2C(=O)CC(C)(C)CC2=O)cc1 [Tetraketone, 10] | 30.8 µM |
| COc1ccccc1C(C1C(=O)CC(C)(C)CC1=O)C1C(=O)CC(C)(C)CC1=O [Tetraketone, 7] | 196 µM |
| CN(C)c1ccc(C(C2C(=O)CC(C)(C)CC2=O)C2C(=O)CC(C)(C)CC2=O)cc1 [Tetraketone, 11] | 17.5 µM |
| CC1(C)CC(=O)C(C(c2ccco2)C2C(=O)CC(C)(C)CC2=O)C(=O)C1 [Tetraketone, 21] | 51.5 µM |
| CC1(C)CC(=O)C(C(c2ccccc2Cl)C2C(=O)CC(C)(C)CC2=O)C(=O)C1 [Tetraketone, 12] | 28.4 µM |
| CC1(C)CC(=O)C(C(c2ccc(/C(Br)=C/c3ccccc3)cc2)C2C(=O)CC(C)(C)CC2=O)C(=O)C1 [Tetraketone, 20] | 35.4 µM |

Continued by falling IC50, values first:

| IC50 | SMILES |
| --- | --- |
| 33.1 µM | COc1ccc(C(C2C(=O)CC(C)(C)CC2=O)C2C(=O)CC(C)(C)CC2=O)c(OC)c1 [Tetraketone, 9] |
| 33 µM | CC1(C)CC(=O)C(C(c2ccccc2)C2C(=O)CC(C)(C)CC2=O)C(=O)C1 [Tetraketone, 2] |
| 27.1 µM | CC1(C)CC(=O)C(C(c2ccc(O)c(Br)c2)C2C(=O)CC(C)(C)CC2=O)C(=O)C1 [Tetraketone, 15] |
| 26.4 µM | CC1(C)CC(=O)C(C(c2ccc(O)cc2)C2C(=O)CC(C)(C)CC2=O)C(=O)C1 [Tetraketone, 6] |
| 21.3 µM | COc1ccc(C(C2C(=O)CC(C)(C)CC2=O)C2C(=O)CC(C)(C)CC2=O)cc1 [Tetraketone, 8] |
| 12.5 µM | Cc1ccc(C(C2C(=O)CC(C)(C)CC2=O)C2C(=O)CC(C)(C)CC2=O)o1 [Tetraketone, 22] |
| 7.8 µM | CC1(C)CC(=O)C(C(c2ccc(/C=C/c3ccccc3)cc2)C2C(=O)CC(C)(C)CC2=O)C(=O)C1 [Tetraketone, 19] |
